Data reported in the supplement of paper PMC10307832.

Tests used:
Assay in all cases: relative viability (nuclei count vs DMSO), 5 days (fraction); higher = more cells survive
TPCA-1 + Olaparib = compound: C1=CC(=CC=C1C2=CC(=C(S2)NC(=O)N)C(=O)N)F [TPCA-1] + O=C(c1cc(Cc2n[nH]c(=O)c3ccccc23)ccc1F)N1CCN(C(=O)C2CC2)CC1 [Olaparib] (partner 8 µM)
Procedure, shortened: (§1)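 Nuclei were stained with Hoechst during a one-step fixation (final 0.05% Triton X-100, 1% formaldehyde, 1 ug/ml Hoechst) carried out 5 days after dosing, then counted on 4× images. The cells, lung cancer lines in 1536-well plates, had been dosed by pin tool the day after seeding with one drug alone or a fixed anchor-drug dose plus five library-drug doses (not always all listed) in √10 steps. Relative viability is the nuclei count in treated wells divided by that in vehicle wells, and each value is the median of duplicate plates.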

TPCA-1 + Pemetrexed = compound: C1=CC(=CC=C1C2=CC(=C(S2)NC(=O)N)C(=O)N)F [TPCA-1] + Nc1nc2[nH]cc(CCc3ccc(C(=O)N[C@@H](CCC(=O)O)C(=O)O)cc3)c2c(=O)[nH]1 [Pemetrexed] (partner 0.2 µM)
Procedure, shortened: as §1

[1] = compound: C1/C(=C\C2=CC=CS2)/C(=O)/C(=C/C3=CC=CS3)/C1 + O=C(c1cc(Cc2n[nH]c(=O)c3ccccc23)ccc1F)N1CCN(C(=O)C2CC2)CC1 [Olaparib] (partner 8 µM)
Procedure, shortened: as §1

TPCA-1 + Phenformin = compound: C1=CC(=CC=C1C2=CC(=C(S2)NC(=O)N)C(=O)N)F [TPCA-1] + N=C(N)NC(=N)NCCc1ccccc1 [Phenformin] (partner 250 µM)
Procedure, shortened: as §1

| Cell Line | relative viability (TPCA-1 + Olaparib; first compound 0.04 µM) | relative viability (TPCA-1 + Olaparib; first compound 0.1265 µM) | relative viability (TPCA-1 + Olaparib; first compound 0.4 µM) | relative viability (TPCA-1 + Olaparib; first compound 1.265 µM) | relative viability (TPCA-1 + Olaparib; first compound 4 µM) | relative viability (TPCA-1 + Pemetrexed; first compound 0.04 µM) | relative viability (TPCA-1 + Pemetrexed; first compound 0.1265 µM) | relative viability (TPCA-1 + Pemetrexed; first compound 0.4 µM) | relative viability (TPCA-1 + Pemetrexed; first compound 1.265 µM) | relative viability (TPCA-1 + Pemetrexed; first compound 4 µM) | relative viability ([1]; first compound 0.2 µM) | relative viability ([1]; first compound 0.6325 µM) | relative viability ([1]; first compound 2 µM) | relative viability ([1]; first compound 6.325 µM) | relative viability ([1]; first compound 20 µM) | relative viability (TPCA-1 + Phenformin; first compound 0.04 µM) | relative viability (TPCA-1 + Phenformin; first compound 0.1265 µM) | relative viability (TPCA-1 + Phenformin; first compound 0.4 µM) | relative viability (TPCA-1 + Phenformin; first compound 1.265 µM) | relative viability (TPCA-1 + Phenformin; first compound 4 µM) |
| --- | --- | --- | --- | --- | --- | --- | --- | --- | --- | --- | --- | --- | --- | --- | --- | --- | --- | --- | --- | --- |
| NCI-H2405 | 0.908 | 0.833 | 0.951 | 0.717 | 0.691 | 1.09 | 1.03 | 1.02 | 1.02 | 0.914 | 0.905 | 0.844 | 1.04 | 0.789 | 0.867 | 0.459 | 0.37 | 0.471 | 0.166 | 0.38 |
| HOP-62 | 0.333 | 0.552 | 0.317 | 0.338 | 0.14 | 0.269 | 0.346 | 0.299 | 0.271 | 0.216 | 0.433 | 0.596 | 0.391 | 0.359 | 0.272 | 0.692 | 0.64 | 0.684 | 0.603 | 0.485 |
| NCI-H650 | 0.4 | 0.323 | 0.408 | 0.385 | 0.354 | 0.952 | 0.916 | 0.994 | 0.631 | 0.809 | 0.575 | 0.425 | 0.376 | 0.378 | 0.423 | 0.493 | 0.436 | 0.466 | 0.311 | 0.293 |
| NCI-H358 | 0.619 | 0.48 | 0.646 | 0.546 | 0.32 | 0.187 | 0.167 | 0.162 | 0.156 | 0.167 | 0.862 | 0.715 | 0.657 | 0.443 | 0.492 | 0.359 | 0.287 | 0.379 | 0.333 | 0.206 |
| BEN | 1.08 | 0.977 | 1.32 | 1.04 | 0.869 | 0.701 | 0.661 | 0.739 | 0.99 | 0.513 | 1.15 | 1.03 | 1.19 | 1.04 | 0.944 | 0.304 | 0.262 | 0.255 | 0.254 | 0.249 |
| SW 1573 | 0.539 | 0.414 | 0.481 | 0.476 | 0.48 | 0.792 | 0.823 | 0.844 | 0.924 | 0.715 | 0.394 | 0.455 | 0.556 | 0.435 | 0.248 | 0.341 | 0.323 | 0.411 | 0.296 | 0.331 |
| ChaGo-K-1 | 0.434 | 0.321 | 0.445 | 0.374 | 0.221 | 0.273 | 0.23 | 0.274 | 0.261 | 0.211 | 0.407 | 0.413 | 0.381 | 0.233 | 0.169 | 0.524 | 0.472 | 0.54 | 0.48 | 0.259 |
| SK-MES-1 | 0.696 | 0.577 | 0.801 | 0.611 | 0.369 | 0.925 | 0.808 | 0.91 | 0.769 | 0.631 | 0.792 | 0.781 | 0.696 | 0.669 | 0.729 | 0.679 | 0.612 | 0.668 | 0.596 | 0.498 |
| NCI-H1755 | 0.778 | 0.912 | 0.877 | 0.853 | 0.672 | 0.448 | 0.437 | 0.459 | 0.379 | 0.444 | 0.88 | 0.907 | 0.916 | 0.749 | 0.877 | 0.665 | 0.553 | 0.6 | 0.503 | 0.427 |
| NCI-H2023 | 0.633 | 0.445 | 0.581 | 0.516 | 0.411 | 0.2 | 0.282 | 0.254 | 0.222 | 0.202 | 0.457 | 0.501 | 0.459 | 0.459 | 0.417 | 0.488 | 0.423 | 0.476 | 0.359 | 0.269 |
| LC-2-ad | 0.689 | 0.783 | 0.688 | 0.745 | 0.578 | 0.262 | 0.299 | 0.27 | 0.283 | 0.206 | 0.73 | 0.728 | 0.684 | 0.577 | 0.713 | 0.679 | 0.523 | 0.607 | 0.575 | 0.319 |
| NCI-H1666 | 0.767 | 0.673 | 0.71 | 0.757 | 0.768 | 1.02 | 0.818 | 0.842 | 0.82 | 0.93 | 0.76 | 0.769 | 0.77 | 0.69 | 0.708 | 0.547 | 0.569 | 0.533 | 0.529 | 0.581 |
| 201T | 0.857 | 0.827 | 0.841 | 0.83 | 0.87 | 0.363 | 0.298 | 0.337 | 0.282 | 0.304 | 0.866 | 0.856 | 0.858 | 0.775 | 0.84 | 0.484 | 0.454 | 0.425 | 0.378 | 0.426 |
| NCI-H2009 | 0.697 | 0.733 | 0.626 | 0.753 | 0.817 | 1.07 | 0.979 | 1 | 1.11 | 0.99 | 0.71 | 0.683 | 0.701 | – | 0.707 | 0.542 | 0.486 | 0.512 | 0.429 | 0.44 |
| NCI-H1395 | 0.496 | 0.426 | 0.494 | 0.519 | 0.494 | 0.857 | 0.859 | 1.06 | 0.847 | 0.629 | 0.494 | 0.53 | 0.435 | 0.458 | 0.453 | 0.445 | 0.488 | 0.449 | 0.436 | 0.499 |
| NCI-H2228 | 0.731 | 0.624 | 0.789 | 0.56 | 0.432 | 0.364 | 0.322 | 0.319 | 0.316 | 0.306 | 0.69 | 0.431 | 0.606 | 0.543 | 0.482 | 0.396 | 0.292 | 0.412 | 0.285 | 0.272 |
